Test results published in patent WO2019242687A1, “1,3-dioxane-4,6-dione compound, and preparation method, pharmaceutical composition, and application thereof” (Shanghai Institute of Materia Medica of CAS, priority 2018, dated 2018).
Residue numbers refer to the chain shown, from its start. “Also recorded” adds a separate entry of the source.

Assays:
[1] = target: T1, mini-hSIRT1 protein (SIRT1 Cy5) (Homo sapiens, UniProt Q96EB6); assay: Microscale thermophoresis (MST) binding experiment
T1 sequence (Q96EB6 with tags, fused parts or gaps limits assumed): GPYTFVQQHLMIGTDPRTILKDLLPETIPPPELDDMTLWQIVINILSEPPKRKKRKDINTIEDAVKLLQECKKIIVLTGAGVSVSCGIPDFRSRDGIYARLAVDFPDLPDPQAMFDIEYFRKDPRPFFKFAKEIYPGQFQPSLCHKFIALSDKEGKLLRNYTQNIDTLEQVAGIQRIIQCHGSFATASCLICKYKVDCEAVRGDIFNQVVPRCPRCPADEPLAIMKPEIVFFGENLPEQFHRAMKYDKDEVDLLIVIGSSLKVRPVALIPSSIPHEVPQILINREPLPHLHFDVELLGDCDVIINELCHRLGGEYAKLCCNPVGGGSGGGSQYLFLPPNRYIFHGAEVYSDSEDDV

SIRT1 wild type = target: T2, SIRT1 wild type (Homo sapiens, UniProt Q96EB6); assay: Inhibitory constant on SIRT1 wild type; format: biochemical
T2 sequence (Q96EB6 1-747): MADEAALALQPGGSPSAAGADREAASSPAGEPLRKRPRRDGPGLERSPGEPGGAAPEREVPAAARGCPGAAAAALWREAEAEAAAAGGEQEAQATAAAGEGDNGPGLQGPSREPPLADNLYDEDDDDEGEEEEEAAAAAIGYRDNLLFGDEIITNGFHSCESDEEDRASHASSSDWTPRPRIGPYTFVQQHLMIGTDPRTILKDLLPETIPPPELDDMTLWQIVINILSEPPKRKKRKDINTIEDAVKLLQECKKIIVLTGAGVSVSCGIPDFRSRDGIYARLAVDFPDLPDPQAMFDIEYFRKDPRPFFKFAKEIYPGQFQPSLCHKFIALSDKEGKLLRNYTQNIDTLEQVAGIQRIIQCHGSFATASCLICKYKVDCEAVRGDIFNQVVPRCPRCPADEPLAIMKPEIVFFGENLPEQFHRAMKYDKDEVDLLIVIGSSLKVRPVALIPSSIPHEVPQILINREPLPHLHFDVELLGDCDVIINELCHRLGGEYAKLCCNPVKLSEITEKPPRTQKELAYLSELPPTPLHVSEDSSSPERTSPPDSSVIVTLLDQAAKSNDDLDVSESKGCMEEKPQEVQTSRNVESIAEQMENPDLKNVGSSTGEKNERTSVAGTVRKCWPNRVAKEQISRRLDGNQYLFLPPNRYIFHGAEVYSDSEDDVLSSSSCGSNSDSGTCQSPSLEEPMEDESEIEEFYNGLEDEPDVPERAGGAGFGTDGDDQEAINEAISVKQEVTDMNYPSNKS

SIRT1 F414A = target: T3, SIRT1 F414A (Homo sapiens, UniProt Q96EB6, F414A); assay: Inhibitory constant on SIRT1 mutant F414A; format: biochemical
T3 construct: made in house
T3 sequence (Q96EB6 1-747 F414A): T2 sequence (Q96EB6 1-747) with F414A

SIRT1 = target: T4, SIRT1 (Homo sapiens, UniProt Q96EB6); assay: SIRT1 enzyme activity test (deacetylase inhibition); format: biochemical
T4 sequence (Q96EB6 1-747): T2 sequence (Q96EB6 1-747)

SIRT1 I347A = target: T5, SIRT1 I347A (Homo sapiens, UniProt Q96EB6, I347A); assay: Inhibitory constant on SIRT1 mutant I347A; format: biochemical
T5 construct: made in house
T5 sequence (Q96EB6 1-747 I347A): T2 sequence (Q96EB6 1-747) with I347A

`COc1cc(C=C2C(=O)OC(c3ccccc3)OC2=O)cc(Br)c1O` (stereo not drawn) [Compound S3, 5-(3-bromo-4-hydroxy-5-methoxybenzylidene) -2-phenyl-1,3-dioxane-4,6-dione] was tested, and the “type of inhibition toward NAD+” value ([1]; MST, Figure 3) was “non-competitive inhibitor of NAD +”, the “type of inhibition/binding toward Abz polypeptide” value ([1]; MST, Figure 3) was “competitive inhibitor of Abz polypeptide; also recorded: competitively binds to the binding site of the substrate polypeptide Abz” and the “Kd of binding to SIRT1 (change)” value ([1]; with 500 μM Abz polypeptide) was “increased”. For the same compound, the “binding curve with SIRT1 protein (shift), with Abz polypeptide” value ([1]; with 500 μM Abz polypeptide) was “shifted to the right”, the “binding curve with SIRT1 protein (shift), with NAD+” value ([1]; with 5 mM NAD+) was “did not change significantly” and the Ki (SIRT1 wild type) was 160 nM. The Ki (SIRT1 F414A) was 25500 nM, the “effect of mutation on inhibitory activity of compound” value (SIRT1 F414A; compared with the other mutants) was “影响最大” and the “concentration dependence of SIRT1 inhibition” value (SIRT1; Figure 1, in vitro) was “以浓度依赖性方式抑制SIRT1酶活; also recorded: inhibits SIRT1 activity in a concentration-dependent manner”. The IC50 (SIRT1; Table 2, 1 μM SIRT1, 500 μM NAD+, 10 μM substrate peptide, 37 °C, 30 min) was 1310 ± 260 nM, the “Inhibition of SIRT1 deacylation (IC50)” value (SIRT1; Table 3, SITR1 [sic], 1 μM SIRT1, 500 μM NAD+, 10 μM substrate peptide) was 1.31 ± 0.26 and the Ki (SIRT1 I347A) was 670 nM.
